Data: patent publication US20180015075A1, “METHODS AND COMPOSITIONS FOR TREATMENT OF VENOUS MALFORMATION” (Children's Hospital Medical Center, priority 2016, published 2018)
Like-named read-outs stand apart in the source and are kept apart here.

How the values were obtained:
[1] = system: Pik3ca^H1047R VM lesions; conditions: mouse, in vivo; cited from earlier work
[2] = system: HUVEC-TIE2-L914F-GFP vascular channels; assay: Fibrin gel bead assay; type: cell-based, human
Method: Assay was performed as described(34). Briefly, coated the beads with HUVEC-GFP or HUVEC-TIE2-L914F-GFP cells (2500 beads with 1×10^6 cells) and mixed coated beads in fibrinogen solution at a concentration of ˜500 beads/ml. Then 0.625 Units/mL of thrombin and 0.5 ml beads/fibrinogen suspension were added per well in 24-well plate successively. After dotting in the 37° C.-incubator, added 1 ml EGM-2 medium and 20,000 fibroblasts per well on the top. Then beads treated by adding DMSO, Ponatinib, rapamycin or combination in the medium

| SMILES | VM lesion growth [1] | cell apoptosis (cleaved caspase-3 positive cells) [1] | tube formation (tube area at day 11) [2] | vascular/tube area expansion from day 8 to 14 [2] [%] | vascular/tube area expansion from day 8 to 14 ([2]; 100 nM Ponatinib or 10 nM rapamycin added from day 8, vehicle 54.50±3.81%) [%] |
| --- | --- | --- | --- | --- | --- |
| Cc1nc(NC(=O)N2CCC[C@H]2C(N)=O)sc1-c1ccnc(C(C)(C)C(F)(F)F)c1 [BYL719] | strongly inhibited VM lesion growth | increased the number of cleaved caspase-3 positive cells |  |  |  |
| CO[C@H]1C[C@@H]2CC[C@@H](C)[C@@](O)(O2)C(=O)C(=O)N2CCCC[C@H]2C(=O)O[C@H]([C@H](C)C[C@@H]2CC[C@@H](OCCO)[C@H](OC)C2)CC(=O)[C@H](C)/C=C(\C)[C@@H](O)[C@@H](OC)C(=O)[C@H](C)C[C@H](C)/C=C/C=C/C=C/1C [Everolimus, 42-O-(2-Hydroxyethyl)-rapamycin] | prevented lesion growth | did not induce cell apoptosis |  |  |  |
| Cc1ccc(C(=O)Nc2ccc(CN3CCN(C)CC3)c(C(F)(F)F)c2)cc1C#Cc1cnc2cccnn12 [Ponatinib, 3-(2-imidazo[1,2-b]pyridazin-3-ylethynyl)-4-methyl-N-[4-[(4-methyl-1-piperazinyl)methyl]-3-(trifluoromethyl)phenyl]-benzamide] |  |  | almost completely inhibited tube formation | 14.79±4.53 |  |
| CO[C@H]1C[C@@H]2CC[C@@H](C)[C@@](O)(O2)C(=O)C(=O)N2CCCC[C@H]2C(=O)O[C@H]([C@H](C)C[C@@H]2CC[C@@H](O)[C@H](OC)C2)CC(=O)[C@H](C)/C=C(\C)[C@@H](O)[C@@H](OC)C(=O)[C@H](C)C[C@H](C)/C=C/C=C/C=C/1C [Sirolimus, Rapamycin] |  |  |  |  | 20.25±3.23 |
